The target of the assay is Matrix metalloproteinase-9 (MMP-9) (Homo sapiens, UniProt P14780). Put plainly: fluorogenic peptide. Format: biochemical.

Data on one compound can be found in article PMC3482625 (Analytical chemistry, 2011).

Sequence of Matrix metalloproteinase-9 (MMP-9) (P14780 107-707): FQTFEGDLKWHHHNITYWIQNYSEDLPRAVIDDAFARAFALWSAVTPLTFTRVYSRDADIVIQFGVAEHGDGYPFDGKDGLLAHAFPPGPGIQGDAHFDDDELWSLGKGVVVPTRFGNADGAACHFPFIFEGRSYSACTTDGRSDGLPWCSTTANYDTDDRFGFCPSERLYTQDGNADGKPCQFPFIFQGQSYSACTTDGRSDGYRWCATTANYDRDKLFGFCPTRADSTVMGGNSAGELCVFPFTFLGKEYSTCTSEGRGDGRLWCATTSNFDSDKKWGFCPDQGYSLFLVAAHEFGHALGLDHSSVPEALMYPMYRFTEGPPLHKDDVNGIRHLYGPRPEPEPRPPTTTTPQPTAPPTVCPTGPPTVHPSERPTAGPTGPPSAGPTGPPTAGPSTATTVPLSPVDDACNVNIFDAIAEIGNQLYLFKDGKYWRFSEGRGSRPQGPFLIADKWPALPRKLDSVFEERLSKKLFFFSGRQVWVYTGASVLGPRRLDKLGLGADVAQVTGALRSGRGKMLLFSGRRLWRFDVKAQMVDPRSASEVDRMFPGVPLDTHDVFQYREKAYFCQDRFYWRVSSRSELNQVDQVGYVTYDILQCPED

As usually defined, the IC50 is the concentration that gives 50% inhibition. Lower therefore signals higher potency. On to `CC(C)(NS(=O)(=O)c1ccc(Oc2ccc(F)cc2)cc1)C(=O)NO` [CP471474], for which the IC50 is 11.9 ± 1 nM.
